The subject of test [1] is A431 (EGFR-WT) cells. As to the kind of experiment: Inhibitory activity on proliferation of A431 (EGFR-WT) cells (CTG, 72 h). It is filed as cell-based. The settings on record: Homo sapiens, A-431. Here is the method: NCI-H1975 (EGFR-L858R-T790M) and A431 (EGFR-WT) cells were purchased from ATCC and cultured in an incubator at 37° C. with 5% CO2, and the culture mediums were RPMI1640+10% FBS and DMEM+10% FBS, respectively. On the first day, NCI-H1975 (EGFR-L858R-T790M) and A431 (EGFR-WT) cells in the logarithmic phase were collected, and viable cells were counted using an automatic cell analyzer (countstar). The cell suspensions were adjusted with the culture mediums and plated on a 96-well cell culture plate at 1000 cells/well for NCI-H1975 (EGFR-L858R-T790M) cells and at 3000 cells/well for A431 cells. The next day, the culture mediums were aspirated, and 90 μL of fresh culture mediums and 10 μL of the compounds at different concentrations were added to each well, wherein the final concentration of DMSO in each well was 0.1%. The plate was cultured in the incubator at 37° C. with 5% CO2 for 72 hours. After 72 hours of drug treatment, 50 μL of CTG solution (promega, G7572), which was already pre-melted and equilibrated to room temperature, was added to each well, and the mixtures were uniformly mixed for 2 min using a microplate shaker. The plate was placed at room temperature for 10 min, and then […] signal values were measured using a microplate reader (PHERAstar FSX).
Surviving cells % was calculated based on Vsample/Vvehicle control×100%, wherein Vsample was the readout of the drug-treated group, and Vvehicle control was the average value of the vehicle control group. Using the origin 9.2 software and nonlinear regression model, S-shaped dose-survival curves were plotted, and IC50 values were calculated.

Test [2] deals with NCI-H1975 (EGFR-L858R-T790M) cells. The experiment in a line: Inhibitory activity on proliferation of NCI-H1975 (EGFR-L858R-T790M) cells (CTG, 72 h). It is filed as cell-based. The settings on record: Homo sapiens. The essentials:
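IC50 values come from S-shaped dose-survival fits of CTG signal expressed as % of vehicle. Compound exposure lasted 72 h at 37 °C with 0.1% DMSO; seeding was 3000 A431 cells/well in DMEM+10% FBS and 1000 NCI-H1975 cells/well in RPMI1640+10% FBS.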

Setting [3] is: read-out: IC50 (value in brackets).

As usually defined, the IC50 is the concentration needed to halve the response being measured.

Read-outs that look alike come from different tables or passages of the source.

Consider `COc1cc(N2CCC(CN3CCC4(CCCN(c5cc6c(cc5F)C(=O)N(C5CCC(=O)NC5=O)C6=O)C4)CC3)CC2)c(-c2cnn(C)c2)cc1Nc1ncc(Br)c(Nc2ccc(-c3ccccc3)cc2P(C)(C)=O)n1` (stereo not drawn) [Compound 61, 5-(9-((1-(4-((5-bromo-4-((3-(dimethylphosphoryl)-[1,1′-biphenyl]-4-yl)amino)pyrimidin-2-yl)amino)-5-methoxy-2-(1-methyl-1H-pyrazol-4-yl)phenyl)piperidin-4-yl)methyl)-2,9-diazaspiro[5.5]undecan-2-yl)-2-(2,6-dioxopiperidin-3-yl)-6-fluoroisoindoline-1,3-dione], for which the IC50 is at least 10000 nM in test [1], 100 to 500 nM in test [2] (read-out: IC50 (class symbol)) and 176 nM in test [2] (setting [3]).
As to `COc1cc(N2CCC(C3CCN(C4CC5(CCN(c6ccc7c(c6)C(=O)N(C6CCC(=O)NC6=O)C7=O)CC5)C4)CC3)CC2)c(-c2cnn(C)c2)cc1Nc1ncc(Cl)c(Nc2ccc3nccnc3c2P(C)(C)=O)n1` (stereo not drawn) [Trifluoroacetate of compound 14, 5-(2-(1′-(4-((5-chloro-4-((5-(dimethylphosphoryl)quinoxalin-6-yl)amino)pyrimidin-2-yl)amino)-5-methoxy-2-(1-methyl-1H-pyrazol-4-yl)phenyl)-[4,4′-bipiperidin]-1-yl)-7-azaspiro[3.5]nonan-7-yl)-2-(2,6-dioxopiperidin-3-yl)isoindoline-1,3-dione], the IC50 was at least 10000 nM in test [1], below 100 nM in test [2] (read-out: IC50 (class symbol)) and 49 nM in test [2] (setting [3]).
`COc1cc(N2CCN(C[C@H]3CCN(c4ccc5c(c4)C(=O)N(C4CCC(=O)NC4=O)C5=O)C3)CC2)c(-c2cnn(C)c2)cc1Nc1ncc(Cl)c(Nc2ccc(C3CC3)cc2P(C)(C)=O)n1` (stereo partly drawn) [Compound 119, 5-((R)-3-((4-(4-((5-chloro-4-((4-cyclopropyl-2-(dimethylphosphoryl)phenyl)amino)pyrimidin-2-yl)amino)-5-methoxy-2-(1-methyl-1H-pyrazol-4-yl)phenyl)piperazin-1-yl)methyl)pyrrolidin-1-yl)-2-(2,6-dioxopiperidin-3-yl)isoindoline-1,3-dione]: the figures for the IC50 in test [1], in test [2] (read-out: IC50 (class symbol)) and in test [2] (setting [3]) were at least 10000 nM, below 100 nM and 29 nM, respectively.
On to `COc1cc(N2CCC(C(=O)N3CCN(c4ccc5c(c4)C(=O)N(C4CCC(=O)NC4=O)C5=O)CC3)CC2)c(-c2cnn(C)c2)cc1Nc1ncc(Cl)c(Nc2ccc(C3CC3)cc2P(C)(C)=O)n1` (stereo not drawn) [Compound 143, 5-(4-(1-(4-((5-chloro-4-((4-cyclopropyl-2-(dimethylphosphoryl)phenyl)amino)pyrimidin-2-yl)amino)-5-methoxy-2-(1-methyl-1H-pyrazol-4-yl)phenyl)piperidine-4-carbonyl)piperazin-1-yl)-2-(2,6-dioxopiperidin-3-yl)isoindoline-1,3-dione], for which the results for the IC50 in test [1], in test [2] (read-out: IC50 (class symbol)) and in test [2] (setting [3]) were at least 10000 nM, 100 to 500 nM and 110 nM, respectively.
Consider `COc1cc(N2CCC(CN3CCN(c4ccc5c(c4)C(=O)N([C@@H]4CCC(=O)NC4=O)C5=O)CC3)CC2)c(-c2cnn(C)c2)cc1Nc1ncc(Br)c(Nc2ccc(C3CC3)cc2P(C)(C)=O)n1` [Compound 171], for which the results for the IC50 in test [1], in test [2] (read-out: IC50 (class symbol)) and in test [2] (setting [3]) were at least 10000 nM, below 100 nM and 77 nM, respectively.
`COc1cc(N2CCC(CN3CCN(c4ccc(C(=O)NC5CCC(=O)NC5=O)nc4)CC3)CC2)c(-c2cnn(C)c2)cc1Nc1ncc(Cl)c(Nc2ccc(-c3ccccc3)cc2P(C)(C)=O)n1` (stereo not drawn) [Compound 66, 5-(4-((1-(4-((5-chloro-4-((3-(dimethylphosphoryl)-[1,1′-biphenyl]-4-yl)amino)pyrimidin-2-yl)amino)-5-methoxy-2-(1-methyl-1H-pyrazol-4-yl)phenyl)piperidin-4-yl)methyl)piperazin-1-yl)-N-(2,6-dioxopiperidin-3-yl)picolinamide]: the IC50 was at least 10000 nM in test [1], below 100 nM in test [2] (read-out: IC50 (class symbol)) and 99 nM in test [2] (setting [3]).
Take `COc1cc(N2CCC3(CCN(c4ccc5c(c4)C(=O)N(C4CCC(=O)NC4=O)C5=O)CC3)CC2)c(-c2cnn(C)c2)cc1Nc1ncc(Br)c(Nc2ccc(-c3ccccc3)cc2P(C)(C)=O)n1` (stereo not drawn) [Compound 79, 5-(9-(4-((5-bromo-4-((3-(dimethylphosphoryl)-[1,1′-biphenyl]-4-yl)amino)pyrimidin-2-yl)amino)-5-methoxy-2-(1-methyl-1H-pyrazol-4-yl)phenyl)-3,9-diazaspiro[5.5]undecan-3-yl)-2-(2,6-dioxopiperidin-3-yl)isoindoline-1,3-dione]: the values for the IC50 in test [1], in test [2] (read-out: IC50 (class symbol)) and in test [2] (setting [3]) were at least 10000 nM, 100 to 500 nM and 314 nM, respectively.
Consider `COc1cc(N2CCN(C3CCN(CC4CCN(c5cc6c(cc5F)C(=O)N(C5CCC(=O)NC5=O)C6=O)CC4)CC3)CC2)c(-c2cnn(C)c2)cc1Nc1ncc(Br)c(Nc2ccc(-c3ccccc3)cc2P(C)(C)=O)n1` (stereo not drawn) [Compound 46, 5-(4-((4-(4-(4-((5-bromo-4-((3-(dimethylphosphoryl)-[1,1′-biphenyl]-4-yl)amino)pyrimidin-2-yl)amino)-5-methoxy-2-(1-methyl-1H-pyrazol-4-yl)phenyl)piperazin-1-yl)piperidin-1-yl)methyl)piperidin-1-yl)-2-(2,6-dioxopiperidin-3-yl)-6-fluoroisoindoline-1,3-dione], for which the IC50 in test [1] is at least 10000 nM; in test [2] (read-out: IC50 (class symbol)), below 100 nM; in test [2] (setting [3]), 71 nM.
On to `COc1cc(N2CCC(CN3CCN(c4ccc5c(c4)C(=O)N([C@H]4CCC(=O)NC4=O)C5=O)CC3)CC2)c(-c2cnn(C)c2)cc1Nc1ncc(Cl)c(Nc2ccc(C3CC3)cc2P(C)(C)=O)n1` [Compound 172], for which the IC50 in test [1] was at least 10000 nM; in test [2] (read-out: IC50 (class symbol)), below 100 nM; in test [2] (setting [3]), 49 nM.
For `COc1cc(N2CCC(F)(CN3CCN(c4ccc5c(c4)C(=O)N(C4CCC(=O)NC4=O)C5=O)CC3)CC2)c(-c2cnn(C)c2)cc1Nc1ncc(Br)c(Nc2ccc(C3CC3)cc2P(C)(C)=O)n1` (stereo not drawn) [Compound 147, 5-(4-((1-(4-((5-bromo-4-((4-cyclopropyl-2-(dimethylphosphoryl)phenyl)amino)pyrimidin-2-yl)amino)-5-methoxy-2-(1-methyl-1H-pyrazol-4-yl)phenyl)-4-fluoropiperidin-4-yl)methyl)piperazin-1-yl)-2-(2,6-dioxopiperidin-3-yl)isoindoline-1,3-dione], the IC50 is at least 10000 nM in test [1], 100 to 500 nM in test [2] (read-out: IC50 (class symbol)) and 103 nM in test [2] (setting [3]).
For the compound `COc1cc(N2CCN(C3CN(c4ccc5c(c4)C(=O)N(C4CCC(=O)NC4=O)C5=O)C3)CC2)c(-c2cnn(C)c2)cc1Nc1ncc(Br)c(Nc2ccc(C3CC3)cc2P(C)(C)=O)n1` (stereo not drawn) [Compound 150, 5-(3-(4-(4-((5-bromo-4-((4-cyclopropyl-2-(dimethylphosphoryl)phenyl)amino)pyrimidin-2-yl)amino)-5-methoxy-2-(1-methyl-1H-pyrazol-4-yl)phenyl)piperazin-1-yl)azetidin-1-yl)-2-(2,6-dioxopiperidin-3-yl)isoindoline-1,3-dione], the IC50 in test [1] was at least 10000 nM; in test [2] (read-out: IC50 (class symbol)) it was below 100 nM; in test [2] (setting [3]), 40 nM.
With `COc1cc(N2CCC(N3CCN(CC4CCN(c5ccc6c(c5)C(=O)N(C5CCC(=O)NC5=O)C6=O)C4)CC3)CC2)c(-c2cnn(C)c2)cc1Nc1ncc(Br)c(Nc2ccc3nccnc3c2P(C)(C)=O)n1` (stereo not drawn) [Compound 30, 5-(3-((4-(1-(4-((5-bromo-4-((5-(dimethylphosphoryl)quinoxalin-6-yl)amino)pyrimidin-2-yl)amino)-5-methoxy-2-(1-methyl-1H-pyrazol-4-yl)phenyl)piperidin-4-yl)piperazin-1-yl)methyl)pyrrolidin-1l-yl)-2-(2,6-dioxopiperidin-3-yl)isoindoline-1,3-dione], the IC50 in test [1] was at least 10000 nM; in test [2] (read-out: IC50 (class symbol)) it was below 100 nM; in test [2] (setting [3]), 12 nM.
Turning to `COc1cc(N2CCC(N3CCN(CC4(F)CCN(c5ccc6c(c5)C(=O)N(C5CCC(=O)NC5=O)C6=O)CC4)CC3)CC2)c(-c2cnn(C)c2)cc1Nc1ncc(Br)c(Nc2ccc(-c3ccccc3)cc2P(C)(C)=O)n1` (stereo not drawn) [Trifluoroacetate of compound 86, 5-(4-((4-(1-(4-((5-bromo-4-((3-(dimethylphosphoryl)-[1,1′-biphenyl]-4-yl)amino)pyrimidin-2-yl)amino)-5-methoxy-2-(1-methyl-1H-pyrazol-4-yl)phenyl)piperidin-4-yl)piperazin-1-yl)methyl)-4-fluoropiperidin-1-yl)-2-(2,6-dioxopiperidin-3-yl)isoindoline-1,3-dione], the IC50 in test [1] is at least 10000 nM; in test [2] (read-out: IC50 (class symbol)), below 100 nM; in test [2] (setting [3]), 77 nM.

(Values after patent US20240269298A1, “PHOSPHONYL DERIVATIVE, AND COMPOSITION AND PHARMACEUTICAL APPLICATION THEREOF” (XIZANG HAISCO PHARMACEUTICAL CO., LTD., priority 2021, published 2024).)
